One data set relates to p-c-Raf. Put plainly: Immunoblotting of p-c-Raf in skin tissue. It counts as in vivo, mouse. Here is the method:
(§1) 4.1) Protein extraction: 70 mg of skin tissue was placed in a 1.5 mL centrifuge tube, and 500 μL of tissue lysate RIPA containing protease inhibitor and phosphatase inhibitor was added. The tissue was placed on an ice box, pulverized by a tissue grinder, and then ultrasonically crushed to obtain a tissue suspension, which was then placed in a rotary windmill at 4° C. to be lysed for 2 h. The centrifuge was set at 12,000×g, 4° C., centrifuged for 15 min, and the supernatant was collected as the total protein.
(§2) 5.1) Heating of protein samples: the total protein content of each tissue was 50 μg; calculate the volume of a corresponding protein sample, make up the volume with saline to 16 μL, then add 4 μL of 5×SDS sampling buffer, heat at 100° C. for 5 min, and then cool at room temperature and store at −20° C.
(§3) 5.7) Primary antibody incubation: the cut protein bands were placed into the corresponding primary antibody and incubated at 4° C. on a shaker overnight, washed with TBST 3 times for 10 min/time.
A general note: A western blot detects proteins with antibodies after separation by electrophoresis.

In another data set the test system is p-MEK. Description: Immunoblotting of p-MEK in skin tissue. The following applies: P<0.05, dose-effect relationship. Format: in vivo, mouse. Here is the method:
as §1, §2, §3

Data set [1] relates to TP-induced AGA model mice. Description: TP-induced AGA model, Animal model II (JP1 topical, dose-effect). Format: in vivo, C57BL/6J male mice. The note with it: for hair coverage on the 18th day: twice a day. Here is the method:
To prolong the action time of JP1, the design scheme of the animal model in this example adjusted the once-a-day of the first model to twice-a-day administration with an interval of 6 h (FIG. 6A). For details of the experiments, please refer to “Animal model II” of “1. TP-induced AGA model” in “Experimental Methods” below.
The mice used in this study were 5-week-old C57BL/6J male mice (18-20 g), which were purchased from Jiangsu Jicui Pharmachem Biotechnology Co. All the animals used in the experiments were housed in the SPF-level environment of the Medical Laboratory Animal Center of Nanjing Medical University, and the relevant animal experimental operations were approved by the Animal Ethics Committee of Nanjing Medical University. The control group was left untreated, and the other groups were injected with TP subcutaneously on their backs every day. Two weeks later, the hair on the backs of the mice was shaved with an electric razor, covering an area of 2 cm×4 cm, and then the residual hair was removed with a hair removal cream. The subcutaneous injections of TP on the shaved backs of the mice in the AGA model was continued until the end of the experimental period, and the administration of TP in each of the treatment groups was begun on the 1st day of the dehairing process.
In addition to the normal control group (denoted as control) n=20, all mice injected subcutaneously with TP were randomly divided into the following groups (n=20): the model group (denoted as model), the 0.1% JP1, the 0.5% JP1, the 1% JP1 (all administered by topical dermal application), and the 5% minoxidil group.
Mice were weighed every two days during the experiment. Skin color was assessed against skin score charts. The mice were euthanized and treated at the end of the experiment, and skin tissues were taken from the dorsal decorticated area of the mice. Some of the tissues were fixed with 4% paraformaldehyde solution and then paraffin sections were made for H&E or immunofluorescence staining, etc., and some of the tissues were stored in the refrigerator at −80° C. for relevant molecular expression assays (qRT-PCR, Western Blot, IP, etc.).
8.1) Sampling and fixation: After the experiment, skin tissue was taken from the depilated area on the back of the mouse and placed in a 10 mL EP tube. 4% paraformaldehyde was added to the EP tube, and all tissues were immersed to denature and coagulate the proteins of the skin tissue. The original morphology and structure of the cells were maintained.
8.6) H&E staining: the sections pretreated in distilled water were put into aqueous hematoxylin solution for a few minutes for staining. The color was separated in acid water and ammonia for a few seconds each. After rinsing in running water for 1 h, the sections were placed in distilled water for a few moments. The sections were dehydrated in 70% and 90% alcohol for 10 min each, and stained in alcoholic eosin stain for 2-3 min.

In another data set the test system is Wnt signaling pathway. Put plainly: Proteomics and protein phosphorylation sequencing of skin tissue (KEGG, GSEA). Format: in vivo, mouse. Here is the method:
Appropriate amounts of mouse skin tissues (n=3) from the model group and 1% JP1 group were added to a mortar pre-cooled with liquid nitrogen, and ground thoroughly with liquid nitrogen into powders. The samples were separately added to lysis buffer and lysed by ultrasonication. The centrifugation was performed at 4° C., 12,000×g for 10 min, and protein concentration was determined by BCA. Trypsin digestion was followed by liquid chromatography-mass spectrometry serial analysis.

The conditions of data set [2]: mouse, in vivo.
Description: In this Example, to elucidate the mechanism of JP1 penetrating the skin and acting on the hair follicle, a 14-day AGA modeling was performed according to the model design strategy of Example 1 above. Thereafter, a 1% FITC-JP1 solution was applied to the dorsal depilated area of the mice in a light-avoidance environment. Five time points were set at 0.5, 1, 2, 4 and 8 h for observation. The fresh skin tissue was made into frozen sections, and the penetration pathway of JP1 in the skin tissue and the amount of aggregation in the hair follicles were observed under an inverted fluorescence microscope.
15 C57BL/6J male mice were dorsally depilated after two weeks of continuous TP injection. A 1% FITC-JP1 solution was applied locally to the depilated area of the mice on the 1st day after depilation, no light, in five groups of 0.5 h, 1 h, 2 h, 4 h and 8 h (n=3).
The back skin was removed at the corresponding time points and fixed in 4% paraformaldehyde. After 48 h of fixation, the skin tissue was successively dehydrated in 20% and 30% sucrose solution for 2 days each. After gradient dehydration, sections (20 μm) were made using a frozen microtome. Zeiss inverted fluorescence microscope was used to photograph the fluorescent sections.
For another data set, the system named is AR. Put plainly: qPCR of AR mRNA in skin tissue of model mice. It counts as in vivo, mouse. The note with it: model II, P>0.05. Here is the method:
6.1) Sample preparation: 15-20 mg of mouse skin tissue was placed in a 1.5 mL centrifuge tube, and 600 μL of pre-cooled lysate was quickly added, and homogenized with an electric homogenizer. The homogenate obtained was blown gently 10 times, left at room temperature for 3-5 min, then centrifuged at 14,000×g for 5 min, and the supernatant was transferred to a new centrifuge tube with a pipette gun of suitable volume.
6.10) Reverse transcribe the RNA into cDNA according to the instructions of the reverse transcription kit, and then carry out subsequent experiments or store at −20° C. for later use.
7.1) Dilute the specific gene amplification primers to 10 µM in ddH2O, prepare the qPCR reaction system according to the instructions in the kit and add them sequentially into a 384-well plate.
7.3) Relative mRNA expression levels of genes were calculated by the […] relative quantification method using GAPDH as an internal reference.
For orientation: In qPCR the cycle at which signal appears reflects the starting amount.

Square brackets hold non-standard residues; d marks the D form. Ends that are not written are not given here. pS = N[C@@H](COP(=O)(O)O)C(=O)O

As for “FPGSDRF-RGD (FPG[pS]DRFRGD) [JP1, amino acid S is phosphorylated; JWA peptide]”, the p-c-Raf protein level result with p-c-Raf is “not significantly altered”. The p-MEK expression level result in the data set on p-MEK was “elevated”. The entries for the “hair coverage on the 18th day” value in data set [1] (0.1% JP1 topical) and in data set [1] (1% JP1 topical) were “lowest” and “highest hair coverage”, respectively. Moreover, in data set [1] (1% JP1 group), the “hair bulb size on day 11 among groups” value is listed as “largest”. Besides, the “hair follicle phase on day 11” value in data set [1] (H&E longitudinal, model group just entered the anagen phase) was “mid-growth phase”. In addition, the “total number of hair follicles vs model group” value in data set [1] (H&E transverse sections, day 11) is “increased significantly and dose-dependently”. For the same substance, the “effect on growth cycle of hair follicles” value in data set [1] (JP1 or minoxidil intervention) was “accelerate the entry of hair follicles into the anagen phase and shorten the resting phase”. The “diameter of the hair bulb vs model group” value in data set [1] (day 11) is on record as “significantly larger than that of the model group”. Also, the “difference between body weights of the groups” value in data set [1] (during the experiment) is “no statistically significant difference”. Also, the “hair follicle phase on day 32” value in data set [1] (medium and high dose JP1 group, model group entered the resting phase) is “entered the anagen phase again”. The “dose-effect relationship of AGA hair follicle regeneration” value in data set [1] (skin-coating 0.1%, 0.5%, 1% JP1) is given as “significant dose-effect relationship”. The “skin color on the 11th day” value in data set [1] (topical, model group appeared orange) is reported as “changed to gray”. For the same substance, in the data set with Wnt signaling pathway (skin tissue, proteomics), the “KEGG signaling pathway analysis, differences 1% JP1 vs model group” value was “mainly enriched in the Wnt signaling pathway”. In addition, in the data set on Wnt signaling pathway (skin tissues of JP1-treated mice), the “GSEA analysis of Wnt/β-catenin signaling pathway” value was “enriched”. Moreover, the “penetration into skin and follicle tissue” value in data set [2] is “able to penetrate into the skin and enter into the follicle tissue in a targeted manner”. Moreover, the “AR mRNA level, difference between groups” value with AR is reported as “no statistically significant difference”.
